Patent US7148204B2, “Antisense modulation of bcl-x expression” (Isis Pharmaceuticala, Inc., priority 1998, dated 2006)
In the oligonucleotide strings, read from the 5' end, every base follows the letter of its sugar. An asterisk marks phosphorothioate; unmarked linkages are phosphodiester. Other units and linkages are bracketed, terminal groups are in braces. A string of capitals states the bases alone. e = 2'-O-(2-methoxyethyl) (MOE); [5mC] = 5-methylcytosine; d = 2'-deoxy (DNA)

Tested on: human bcl-x mRNA
Assay: Northern blot analysis of bcl-x mRNA levels in A549 cells
Assay type: cell-based
Settings: for IC50: dose-response, Northern blot
Procedure: Eighteen hours after antisense treatment, cell monolayers were washed twice with cold PBS and lysed in 1 mL RNAZOL™ (TEL-TEST “B” Inc., Friendswood, Tex.). Total RNA was prepared following manufacturer's recommended protocols. Twenty micrograms of total RNA was fractionated by electrophoresis through 1.2% agarose gels containing 1.1% formaldehyde using a MOPS buffer system (AMRESCO, Inc. Solon, Ohio). RNA was transferred from the gel to HYBOND™-N+ nylon membranes (Amersham Pharmacia Biotech, Piscataway, N.J.) by overnight capillary transfer using a Northern/Southern Transfer buffer system (TEL-TEST “B” Inc., Friendswood, Tex.). RNA transfer was confirmed by UV visualization. Membranes were fixed by UV cross-linking using a STRATALINKER™ UV Crosslinker 2400 (Stratagene, Inc, La Jolla, Calif.).
Membranes were probed using QUICKHYB™ hybridization solution (Stratagene, La Jolla, Calif.) using manufacturer's recommendations for stringent conditions with an 822-base pair bcl-x specific probe prepared by PCR from bases 33–855 of human bcl-xl sequence (Boise et al., 1993, Cell 74:597–608; GenBank accession no. L20121). To normalize for variations in loading and transfer efficiency membranes were stripped and probed for glyceraldehyde-3-phosphate dehydrogenase (GAPDH) RNA (Clontech, Palo Alto, Calif.). Hybridized membranes were visualized and quantitated using a PHOSPHORIMAGER™ and IMAGEQUANT™ Software V3.3 (Molecular Dynamics, Sunnyvale, Calif.). Data was normalized to GAPDH levels in untreated controls.
Oligonucleotides were tested by Northern blot analysis as described in Example 14. Oligonucleotides were tested in A549 cells at a concentration of 400 nM. The results are Table 2:
Oligonucleotides were tested by Northern blot analysis as described in Example 14. Chimeric oligonucleotides were in A549 cells at a concentration of 200 nM. Where present, “N.D.” indicates “not determined”.

[1] = 200 nM chimeric oligonucleotide

Substance | % CONTROL (bcl-x mRNA levels) (400 nM oligonucleotide) | % INHIB (bcl-x mRNA levels) (400 nM oligonucleotide) | % CONTROL (bcl-x mRNA levels) [1] | % INHIB (bcl-x mRNA levels) [1] | IC50
11225 (antisense dC*dA*dG*dT*dG*dG*dC*dT*dC*dC*dA*dT*dT*dC*dA*dC*dC*dG*dC*dG) [compound 11225] | 25% | 75% | – | – | –
11226 (antisense dA*dT*dT*dC*dA*dG*dT*dC*dC*dC*dT*dT*dC*dT*dG*dG*dG*dG*dC*dC) [compound 11226] | 34% | 66% | – | – | –
11993 (antisense dT*dC*dA*dT*dT*dC*dA*dC*dT*dA*dC*dC*dT*dG*dT*dT*dC*dA*dA*dA) [compound 11993] | 142% | – | – | – | –
15998 (antisense eT*eA*eA*eT*eA*dG*dG*dG*dA*dT*dG*dG*dG*dC*dT*e[5mC]*eA*eA*e[5mC]*e[5mC]) [compound 15998] | – | – | 13% | 87% | –
16010 (antisense eT*e[5mC]*e[5mC]*eA*eA*dG*dC*dT*dG*dC*dG*dA*dT*dC*dC*eG*eA*e[5mC]*eT*e[5mC]) [compound 16010] | – | – | 13% | 87% | –
11219 (antisense dC*dG*dG*dG*dT*dT*dC*dT*dC*dC*dT*dG*dG*dT*dG*dG*dC*dA*dA*dT) [compound 11219] | 6% | 94% | – | – | –
11227 (antisense dA*dA*dA*dG*dT*dC*dA*dA*dC*dC*dA*dC*dC*dA*dG*dC*dT*dC*dC*dC) [compound 11227] | 10% | 90% | – | – | –
16005 (antisense eG*e[5mC]*e[5mC]*eG*eG*dT*dA*dC*dC*dG*dC*dA*dG*dT*dT*e[5mC]*eA*eA*eA*e[5mC]) [compound 16005] | – | – | 17% | 83% | –
16004 (antisense e[5mC]*eT*eT*eG*e[5mC]*dT*dT*dT*dA*dC*dT*dG*dC*dT*dG*e[5mC]*e[5mC]*eA*eT*eG) [compound 16004] | – | – | 5% | 95% | –
16007 (antisense eT*eA*e[5mC]*e[5mC]*e[5mC]*dC*dA*dT*dC*dC*dC*dG*dG*dA*dA*eG*eA*eG*eT*eT) [compound 16007] | – | – | 31% | 69% | –
16003 (antisense eA*eG*eT*eG*eG*dC*dT*dC*dC*dA*dT*dT*dC*dA*dC*e[5mC]*eG*e[5mC]*eG*eG) [compound 16003] | – | – | 12% | 88% | –
16014 (antisense eA*eG*e[5mC]*eG*eT*dT*dC*dC*dT*dG*dG*dC*dC*dC*dT*eT*eT*e[5mC]*eG*eG) [compound 16014] | – | – | 22% | 78% | –
16015 (antisense eG*eT*e[5mC]*eA*eT*dG*dC*dC*dC*dG*dT*dC*dA*dG*dG*eA*eA*e[5mC]*e[5mC]*eA) [compound 16015] | – | – | 12% | 88% | –
16019 (antisense eG*eG*eA*eG*eG*dA*dT*dG*dT*dG*dG*dT*dG*dG*dA*eG*e[5mC]*eA*eG*eA) [compound 16019] | – | – | 40% | 60% | –
11222 (antisense dG*dT*dT*dG*dA*dA*dG*dC*dG*dT*dT*dC*dC*dT*dG*dG*dC*dC*dC*dT) [compound 11222] | 35% | 65% | – | – | –
11223 (antisense dC*dA*dG*dT*dG*dC*dC*dC*dC*dG*dC*dC*dG*dA*dA*dG*dG*dA*dG*dA) [compound 11223] | 9% | 91% | – | – | –
16018 (antisense eG*eA*eG*eG*eG*dT*dA*dG*dA*dG*dT*dG*dG*dA*dT*eG*eG*eT*e[5mC]*eA) [compound 16018] | – | – | 40% | 60% | –
11228 (antisense dC*dC*dG*dG*dT*dT*dG*dC*dT*dC*dT*dG*dA*dG*dA*dC*dA*dT*dT*dT) [compound 11228] | 31% | 69% | – | – | –
11229 (antisense dA*dC*dC*dA*dG*dT*dC*dC*dA*dT*dT*dG*dT*dC*dC*dA*dA*dA*dA*dC) [compound 11229] | 60% | 40% | – | – | –
11230 (antisense dG*dA*dA*dG*dG*dG*dA*dG*dA*dG*dA*dA*dA*dG*dA*dG*dA*dT*dT*dC) [compound 11230] | 135% | – | – | – | –
11224 (antisense dT*dC*dG*dC*dC*dT*dG*dC*dC*dT*dC*dC*dC*dT*dC*dA*dG*dC*dG*dC) [compound 11224] | 6% | 94% | – | – | ~0.175 µM
15999 (antisense eT*e[5mC]*e[5mC]*e[5mC]*eG*dG*dT*dT*dG*dC*dT*dC*dT*dG*dA*eG*eA*e[5mC]*eA*eT) [compound 15999] | – | – | 4% | 96% | –
11221 (antisense dA*dG*dC*dC*dC*dA*dG*dC*dA*dG*dA*dA*dC*dC*dA*dC*dG*dC*dC*dG) [compound 11221] | 11% | 89% | – | – | –
16001 (antisense eT*e[5mC]*e[5mC]*eA*eT*dC*dT*dC*dC*dG*dA*dT*dT*dC*dA*eG*eT*e[5mC]*e[5mC]*e[5mC]) [compound 16001] | – | – | 17% | 83% | –
CGGGTTCTCCTGGTGGCAAT (all phosphorothioate, sugars by position and methylation of C not given here; further chemistry not fully specified) [ISIS 11219] | – | – | – | – | ~0.25 µM
16000 (antisense eG*eG*eG*e[5mC]*e[5mC]*dT*dC*dA*dG*dT*dC*dC*dT*dG*dT*eT*e[5mC]*eT*e[5mC]*eT) [compound 16000] | – | – | 4% | 96% | –
16002 (antisense eA*eG*eG*eT*eG*dC*dC*dA*dG*dG*dA*dT*dG*dG*dG*eT*eT*eG*e[5mC]*e[5mC]) [compound 16002] | – | – | 8% | 92% | –
11220 (antisense dC*dA*dG*dT*dG*dT*dC*dT*dG*dG*dT*dC*dA*dT*dT*dT*dC*dC*dG*dA) [compound 11220] | 12% | 88% | – | – | –
16006 (antisense e[5mC]*eT*eG*eT*eT*dC*dA*dA*dA*dG*dC*dT*dC*dT*dG*eA*eT*eA*eT*eG) [compound 16006] | – | – | 28% | 72% | –
16011 (antisense e[5mC]*eT*eG*eG*eA*dT*dC*dC*dA*dA*dG*dG*dC*dT*dC*eT*eA*eG*eG*eT) [compound 16011] | – | – | 31% | 69% | –
